Measured values from patent publication US20240010681A1, “PEPTIDES AND METHODS OF USE” (REALTA LIFE SCIENCES, INC., priority 2020, published 2024).

How the values were obtained:
C5a = C5a ELISA in plasma, two-hit ALI rat model; type: in vivo
Procedure: C5a was then measured in each sample by ELISA and absorbance was read at 450 nm. Two replicates for each animal were measured for every time point. Data are means and standard error of the mean. Statistical analysis was performed using were conducted using bootstrap approach or Welch's ANOVA. * denotes p=0.010, ** denotes p=0.004, *** denotes p=0.002, and **** denotes p≤0.001 compared to 2-hit animals.
Animals receiving the 2-hit insult had substantially more C5a production at the 1-hour time point as expected (FIG. 20).
RLS-0071 was tested in a two-hit rat model of ALI. The first insult is neutrophil stimulation with lipopolysaccharide (LPS) followed 30 minutes later by a second insult of classical complement activation with incompatible erythrocytes. This model can produce dramatic neutrophil infiltration into alveolar walls, thickening the walls and reducing alveolar airspace by 85%. […] Given the short 5-minute half-life of C5a, the measurement of elevated C5a at 60 minutes is consistent with tissue generated C5a.

[1] = test system: human umbilical vascular endothelial cell (HUVEC); assay: HUVEC 3-dimensional culture, LPS-stimulated non-VEGF mediated angiogenesis; settings: increasing amounts of peptide; 10 ug/ml LPS; 18 hours
human neutrophils = assay: Immunofluorescence binding to purified human neutrophils; type: cell-based; settings: 1 mM, 30 minutes
Procedure: To evaluate binding of PA-dPEG24 to neutrophils, purified human neutrophils were cytospun onto glass slides. PA-dPEG24 (1 mM) was then added to one set of slides for 30 minutes and the slides were subsequently washed with PBS. The cells were then incubated with an antibody to PA-dPEG24 (1:1,000 dilution of Chicken Anti-PIC1) followed by a labeled secondary antibody (1:2,000 dilution of Anti-Chicken, Alexa Fluor 488) and counterstained with DAPI. Cells were then visualized by microscopy. In each case, DAPI staining confirmed that the cells were present on the slides and intact.

MPO (myeloperoxidase) = MPO (myeloperoxidase) (Homo sapiens, UniProt P05164); assay: ELISA-type plate binding assay, MPO (positive control ligand); settings: in human plasma
C1q = C1q (Homo sapiens, UniProt P02745+P02746+P02747); assay: ELISA-type plate binding assay, C1q (positive control ligand)
[2] = test system: classical complement pathway mediated hemolysis; assay: Free hemoglobin in plasma (intravascular hemolysis), two-hit ALI rat model; type: in vivo; settings: 10 mg/kg IV; compared with saline treatment
Procedure: Complement inhibition in the bloodstream of rats in the 2-hit ALI model was measured by two different methods. The first method measured free hemoglobin in the plasma of the rats over time, by measuring intravascular hemolysis of the transfused incompatible erythrocytes.

[3] = test system: inflammatory cytokines and chemokines; assay: Plasma cytokine and chemokine levels by xMAP bead-based immunoassay in two-hit ALI rat model; type: in vivo
mCH50 = mCH50 ex vivo on plasma of two-hit ALI rats; type: in vivo, rat; settings: 10 mg/kg IV; compared with saline treated control
[4] = not given; remark: listed apart in the source
ICAM-1/CD54 = ICAM-1/CD54 (Homo sapiens, UniProt P05362); assay: ELISA-type plate binding assay, ICAM-1
Procedure: (§1) To address this hypothesis, an ELISA-type binding assay was developed in which neutrophil ligands (LFA-1 and MAC-1/CR3) and […] cell ligands (ICAM-1/CD54 and ICAM-2/CD102) were bound to microtiter plates. Plates were then incubated with increasing amounts of PA-dPEG24 in 1% gelatin/PBS buffer probed with antibody to the peptide and developed.
To ascertain if PA-dPEG24 could bind ICAM-1 and LFA-1 in plasma, these receptors were coated onto microtiter plates and then incubated with human plasma containing increasing amounts of PA-dPEG24, probed with antibody to the peptide and then developed.

MAC-1/CR3 = MAC-1/CR3 (Homo sapiens, UniProt P05107+P11215); assay: ELISA-type plate binding assay, MAC-1; settings: 1% gelatin/PBS buffer
Procedure: as §1

two-hit ALI model = assay: Lung histology (H&E) and ImageJ lung injury score in two-hit ALI rat model; type: in vivo
Procedure: The inventors' previously developed two-hit ALI model is initiated by infusion of LPS (first hit) into Wistar rats followed 30 minutes later with transfusion of 30% incompatible erythrocytes (second hit) and sacrifice of the animals 4 hours later. […] Lungs were isolated from animals four hours after the second hit and tissues evaluated by H&E staining.
To determine the level of lung tissue protection by RLS-0071 in this model, grading of H&E sections for cell wall thickening for the different treatment groups was performed. Images of randomized microscopy fields were converted to black and white and quantified by ImageJ (NIH) analysis. The ratio of black to white pixels was then determined as a measure of lung damage: as lung damage increased, the alveolar walls thickened, shrinking the alveolar space (white space), resulting in a decrease in white pixels and increase in black pixels.

free DNA = assay: Free DNA in plasma by PicoGreen assay, two-hit ALI rat model; type: in vivo
Procedure: . Plasma samples were incubated with PicoGreen. […] All free DNA measurements for each animal were done in triplicate. Data are means and standard error of the mean. Statistical analysis was performed using bootstrap approach or Welch's ANOVA. * denotes p=0.026, ** denotes p=0.039 and *** denotes p=0.005 compared to 2-hit animals.
Neutrophil extracellular traps (NETs) released from activated neutrophils have been previously shown to play a pathogenic role in a variety of autoimmune, metabolic, and inflammatory diseases. […] . […] .

C1q, sequence (P02745 23-245): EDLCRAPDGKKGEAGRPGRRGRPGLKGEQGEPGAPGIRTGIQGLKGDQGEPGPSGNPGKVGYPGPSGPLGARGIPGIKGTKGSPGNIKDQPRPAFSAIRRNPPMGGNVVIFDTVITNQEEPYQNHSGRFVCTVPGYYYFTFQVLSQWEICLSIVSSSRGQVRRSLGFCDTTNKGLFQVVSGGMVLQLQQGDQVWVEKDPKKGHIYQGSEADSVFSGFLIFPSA
C1q, sequence (P02746 28-253): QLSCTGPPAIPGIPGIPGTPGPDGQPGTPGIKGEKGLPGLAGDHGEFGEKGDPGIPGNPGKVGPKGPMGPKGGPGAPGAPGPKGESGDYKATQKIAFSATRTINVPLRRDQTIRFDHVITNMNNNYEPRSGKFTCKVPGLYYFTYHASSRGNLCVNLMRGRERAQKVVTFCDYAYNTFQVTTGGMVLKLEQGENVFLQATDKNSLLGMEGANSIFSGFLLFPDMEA
C1q, sequence (P02747 29-245): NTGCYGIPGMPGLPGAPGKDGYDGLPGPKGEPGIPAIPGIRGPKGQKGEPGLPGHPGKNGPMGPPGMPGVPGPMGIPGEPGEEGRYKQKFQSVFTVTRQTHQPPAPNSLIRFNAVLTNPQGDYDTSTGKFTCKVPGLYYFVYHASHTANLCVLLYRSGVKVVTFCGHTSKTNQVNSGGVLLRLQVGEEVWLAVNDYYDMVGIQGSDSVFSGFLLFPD
ICAM-1/CD54, sequence (P05362 28-532): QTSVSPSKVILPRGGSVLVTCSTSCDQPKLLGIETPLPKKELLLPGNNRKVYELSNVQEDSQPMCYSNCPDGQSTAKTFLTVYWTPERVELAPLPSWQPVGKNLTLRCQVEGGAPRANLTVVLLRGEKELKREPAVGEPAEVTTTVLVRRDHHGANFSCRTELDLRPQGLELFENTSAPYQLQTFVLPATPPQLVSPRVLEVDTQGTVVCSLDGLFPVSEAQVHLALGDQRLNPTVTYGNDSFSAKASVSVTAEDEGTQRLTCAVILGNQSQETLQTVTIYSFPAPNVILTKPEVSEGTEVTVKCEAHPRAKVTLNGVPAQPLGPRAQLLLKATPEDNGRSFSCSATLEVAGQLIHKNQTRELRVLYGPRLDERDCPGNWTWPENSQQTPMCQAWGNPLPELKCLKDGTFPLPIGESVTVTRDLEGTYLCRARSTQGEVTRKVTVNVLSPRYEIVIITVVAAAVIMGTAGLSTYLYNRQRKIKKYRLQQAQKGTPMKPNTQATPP
MPO (myeloperoxidase), sequence (P05164 49-745, species assumed): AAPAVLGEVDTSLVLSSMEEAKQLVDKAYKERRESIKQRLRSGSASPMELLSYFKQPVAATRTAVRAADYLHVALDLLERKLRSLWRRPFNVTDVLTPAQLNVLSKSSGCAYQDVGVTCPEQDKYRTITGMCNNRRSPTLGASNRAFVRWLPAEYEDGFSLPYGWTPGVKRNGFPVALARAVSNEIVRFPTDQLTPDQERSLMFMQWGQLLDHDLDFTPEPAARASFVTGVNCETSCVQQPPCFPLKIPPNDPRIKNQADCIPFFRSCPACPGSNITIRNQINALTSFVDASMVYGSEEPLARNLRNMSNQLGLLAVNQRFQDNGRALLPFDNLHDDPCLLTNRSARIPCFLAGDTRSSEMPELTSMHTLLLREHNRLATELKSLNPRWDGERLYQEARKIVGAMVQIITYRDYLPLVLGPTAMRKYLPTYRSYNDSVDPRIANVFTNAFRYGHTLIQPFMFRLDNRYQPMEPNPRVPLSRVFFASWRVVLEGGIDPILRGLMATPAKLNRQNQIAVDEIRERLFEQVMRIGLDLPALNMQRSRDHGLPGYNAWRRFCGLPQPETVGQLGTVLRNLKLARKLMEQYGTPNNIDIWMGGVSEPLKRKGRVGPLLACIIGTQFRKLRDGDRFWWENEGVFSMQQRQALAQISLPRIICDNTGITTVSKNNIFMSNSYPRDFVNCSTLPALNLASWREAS
MAC-1/CR3, sequence (P05107 23-769, other chains not shown): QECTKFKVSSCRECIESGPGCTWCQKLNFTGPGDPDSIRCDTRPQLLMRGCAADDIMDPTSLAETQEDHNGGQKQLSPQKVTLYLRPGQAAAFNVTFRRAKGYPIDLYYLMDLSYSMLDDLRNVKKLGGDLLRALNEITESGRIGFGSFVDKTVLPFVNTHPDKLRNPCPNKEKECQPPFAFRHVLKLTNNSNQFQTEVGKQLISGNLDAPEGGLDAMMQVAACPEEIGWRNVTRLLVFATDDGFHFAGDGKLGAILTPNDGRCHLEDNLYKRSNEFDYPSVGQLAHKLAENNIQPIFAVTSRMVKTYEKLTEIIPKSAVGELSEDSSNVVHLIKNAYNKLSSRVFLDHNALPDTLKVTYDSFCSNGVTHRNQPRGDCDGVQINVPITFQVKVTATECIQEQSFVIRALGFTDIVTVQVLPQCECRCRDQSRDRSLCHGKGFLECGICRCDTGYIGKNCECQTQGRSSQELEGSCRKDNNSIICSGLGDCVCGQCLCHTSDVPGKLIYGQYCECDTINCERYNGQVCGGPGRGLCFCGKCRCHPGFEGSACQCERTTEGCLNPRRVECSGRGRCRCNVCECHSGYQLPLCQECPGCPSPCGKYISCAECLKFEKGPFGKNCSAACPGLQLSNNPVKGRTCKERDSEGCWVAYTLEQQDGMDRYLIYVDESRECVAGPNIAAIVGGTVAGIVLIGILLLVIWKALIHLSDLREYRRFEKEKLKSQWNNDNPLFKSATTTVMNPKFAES

With `CC[C@H](C)[C@H](N)C(=O)N[C@@H](C)C(=O)N[C@@H](CC(C)C)C(=O)N[C@H](C(=O)N[C@@H](CC(C)C)C(=O)N[C@@H](CCC(=O)O)C(=O)N1CCC[C@H]1C(=O)N[C@H](C(=O)N[C@@H](CS)C(=O)N[C@@H](CS)C(=O)N[C@@H](CCC(N)=O)C(=O)N[C@@H](CCC(=O)O)C(=O)N[C@@H](CCCNC(=N)N)C(=O)N[C@@H](C)C(=O)N[C@@H](C)C(=O)NCCOCCOCCOCCOCCOCCOCCOCCOCCOCCOCCOCCOCCOCCOCCOCCOCCOCCOCCOCCOCCOCCOCCOCCOCCC(=O)O)[C@@H](C)CC)[C@@H](C)CC` [RLS-0071] the “decrease in C5a generation in the tissues” value (C5a; 10 mg/kg IV) was 50%, the “C5a level in blood” value (C5a; all rescue doses 40 mg/kg (0.5-180 minutes), 1-hour time point, vs 2-hit only animals) was “significantly reduced levels of C5a” and the “C5a level in blood” value (C5a; prophylactic 10, 40 and 160 mg/kg, 5-minute time point, p<0.001 each dose) was “significant reduction of C5a”. The “C5a level in blood” value (C5a; prophylactic doses, 1-hour time point, 10 mg/kg reaching significance (p=0.002)) was “reduction of C5a at the 1-hour time points”, the “C5a level in blood” value (C5a; rescue 40 mg/kg at 0.5, 60, 90 and 120 minutes (not 180 minutes), 5-minute time point) was “significantly decreased levels of C5a” and the “angiogenesis (sprouting and tube formation)” value [1] was “dose-dependent reduction in angiogenesis”. For the same compound, the “binding to neutrophil cell surface (immunofluorescence)” value (human neutrophils) was “fluorescence signal demonstrating direct binding of the peptide to the cell surface”, the “binding to MPO” value (MPO (myeloperoxidase)) was “bound PA-dPEG24 in a dose-dependent manner” and the “time RLS-0071 could be detected in vitreous post-IVT injection” value (IVT 160 mg/ml in 5 microliters) was “up to 10 days”. For the same compound, the “half-life, IVT versus IV” value (IVT 160 mg/ml vs IV 200 mg/ml) was “much longer half-life in the eye than peptide delivered intravenously”, the “binding to C1q” value (C1q; 1% gelatin/PBS buffer) was “bound PA-dPEG24 in a dose-dependent manner” and the “binding to C1q” value (C1q; in human plasma) was “bound PA-dPEG24 in a dose-dependent manner”. The “inhibition of intravascular hemolysis (free hemoglobin in plasma)” value [2] was “no inhibition of classical complement pathway mediated hemolysis”, the “levels of anti-inflammatory Th2 cytokine IL-4” value ([3]; 10 or 160 mg/kg before or 40 or 160 mg/kg after transfusion, FIG. 3) was “did not significantly decrease” and the “other cytokine and growth factor levels (EGF, LIX, VEGF, Leptin, GRO, Fractalkine, GM-CSF, Eotaxin, G-CSF)” value ([3]; 10 or 160 mg/kg before or 40 or 160 mg/kg after transfusion, FIG. 4) was “either significant reduction or a trend toward reduced levels”. For the same compound, the “cytokine levels IL-5, IL-18, IL-1alpha, IL-13, IL-17, IL-12, IP-10” value ([3]; 10 or 160 mg/kg before or 40 or 160 mg/kg after transfusion, terminal blood plasma, FIG. 2) was “either significant pro-inflammatory cytokine reduction or a trend toward reduced levels”, the “VEGF level in 2-hit rat acute lung injury model” value ([3]; FIG. 4) was “downregulate VEGF” and the “pro-inflammatory cytokines (IL-1a, IL-1b, IL-6, IFN-g, IL-17, IL-18, TNFa, RANTES) and chemokines (MCP-1, MIP-1a, MIP-2)” value ([3]; prophylactic 10 or 160 mg/kg, rescue 40 or 160 mg/kg, terminal 4-hour time point, vs untreated 2-hit animals, some significant) was “reduced levels of cytokines and chemokines”. For the same compound, the “cytokine levels IFNgamma, IL-6, IL-2, IL-10, TNFalpha, MCP-1, RANTES, MIP1alpha, IL-1beta, MIP-2” value ([3]; single dose 10 or 160 mg/kg before or 40 or 160 mg/kg after transfusion, terminal blood plasma, FIG. 1) was “either significant pro-inflammatory cytokine reduction or a trend toward reduced levels”, the “inhibition of mCH50” value (mCH50) was “did not inhibit mCH50” and the “stability in diluted dose solution in water” value ([4]; 6-day storage at -20 °C freezer, M2768 detected) was “not stable”. The “stability in solutions, rat urine, and/or rat plasma” value ([4]; decomposes to M2768 by dehydrogenation) was “not stable”, the “stability in rat plasma and urine” value ([4]; spiked into control blank rat plasma and pre-dose urine, or decomposition during sample processing) was “not stable in rat plasma/urine” and the “binding to ICAM-1” value (ICAM-1/CD54; 1% gelatin/PBS buffer) was “bound endothelial receptor ICAM-1”. The “binding to ICAM-1” value (ICAM-1/CD54; in human plasma) was “bound dose-dependently”, the “binding to MAC-1” value (MAC-1/CR3) was “but not MAC-1” and the “lung injury score (ratio of black to white pixels)” value (two-hit ALI model; 10 mg/kg prophylactic dose, p=0.002 vs untreated 2-hit animals) was “significant reduction in lung damage”. The “lung injury score (ratio of black to white pixels)” value (two-hit ALI model; 40 mg/kg prophylactic dose, p<0.001 vs untreated 2-hit animals) was “this effect was enhanced”, the “lung damage by H&E histology” value (two-hit ALI model; prophylactic 10, 40 or 160 mg/kg 2 minutes before incompatible erythrocyte transfusion, lungs 4 h after second hit) was “marked reduction in lung damage” and the “lung tissue architecture by H&E histology” value (two-hit ALI model; rescue 40 mg/kg at 0.5, 60, 90, 120 and 180 min after second hit) was “lung tissue architecture resembling that of sham animals”. For the same compound, the “lung injury score (ratio of black to white pixels)” value (two-hit ALI model; rescue 40 mg/kg at 0.5, 60, 90, 120 and 180 minutes after erythrocyte transfusion, all p<0.001) was “significant reduction in lung damage”, the “free DNA level in plasma” value (free DNA; prophylactic 10, 40 and 160 mg/kg, 4 hours after transfusion, 160 mg/kg significant (p=0.026)) was “reduced levels of free DNA” and the “free DNA level in plasma” value (free DNA; rescue 40 mg/kg up to three hours after 2-hit injury, 120 and 180 minutes significant (p=0.039, p=0.005)) was “reduced levels of free DNA”.
